Measurements from ChEMBL document CHEMBL2074519, “Molecular evidence and functional expression of a novel drug efflux pump (ABCC2) in human corneal epithelium and rabbit cornea and its role in ocular drug efflux” (Int J Pharm, 2006).

What was measured:
[1] = target: T1, ATP-binding cassette sub-family C member 2 (Homo sapiens, UniProt Q92887); assay: TP_TRANSPORTER: increase cell accumulation of erythromycin in hMRP2-expressing MDCK2 cells; type: functional, cell-based; details: dog, mdck-ii
[2] = target: T1, ATP-binding cassette sub-family C member 2; assay: TP_TRANSPORTER: increase cell accumulation of cyclosporine-A in hMRP2-expressing MDCK2 cells; type: functional, cell-based; details: dog, mdck-ii

T1 sequence (Q92887 whole entry): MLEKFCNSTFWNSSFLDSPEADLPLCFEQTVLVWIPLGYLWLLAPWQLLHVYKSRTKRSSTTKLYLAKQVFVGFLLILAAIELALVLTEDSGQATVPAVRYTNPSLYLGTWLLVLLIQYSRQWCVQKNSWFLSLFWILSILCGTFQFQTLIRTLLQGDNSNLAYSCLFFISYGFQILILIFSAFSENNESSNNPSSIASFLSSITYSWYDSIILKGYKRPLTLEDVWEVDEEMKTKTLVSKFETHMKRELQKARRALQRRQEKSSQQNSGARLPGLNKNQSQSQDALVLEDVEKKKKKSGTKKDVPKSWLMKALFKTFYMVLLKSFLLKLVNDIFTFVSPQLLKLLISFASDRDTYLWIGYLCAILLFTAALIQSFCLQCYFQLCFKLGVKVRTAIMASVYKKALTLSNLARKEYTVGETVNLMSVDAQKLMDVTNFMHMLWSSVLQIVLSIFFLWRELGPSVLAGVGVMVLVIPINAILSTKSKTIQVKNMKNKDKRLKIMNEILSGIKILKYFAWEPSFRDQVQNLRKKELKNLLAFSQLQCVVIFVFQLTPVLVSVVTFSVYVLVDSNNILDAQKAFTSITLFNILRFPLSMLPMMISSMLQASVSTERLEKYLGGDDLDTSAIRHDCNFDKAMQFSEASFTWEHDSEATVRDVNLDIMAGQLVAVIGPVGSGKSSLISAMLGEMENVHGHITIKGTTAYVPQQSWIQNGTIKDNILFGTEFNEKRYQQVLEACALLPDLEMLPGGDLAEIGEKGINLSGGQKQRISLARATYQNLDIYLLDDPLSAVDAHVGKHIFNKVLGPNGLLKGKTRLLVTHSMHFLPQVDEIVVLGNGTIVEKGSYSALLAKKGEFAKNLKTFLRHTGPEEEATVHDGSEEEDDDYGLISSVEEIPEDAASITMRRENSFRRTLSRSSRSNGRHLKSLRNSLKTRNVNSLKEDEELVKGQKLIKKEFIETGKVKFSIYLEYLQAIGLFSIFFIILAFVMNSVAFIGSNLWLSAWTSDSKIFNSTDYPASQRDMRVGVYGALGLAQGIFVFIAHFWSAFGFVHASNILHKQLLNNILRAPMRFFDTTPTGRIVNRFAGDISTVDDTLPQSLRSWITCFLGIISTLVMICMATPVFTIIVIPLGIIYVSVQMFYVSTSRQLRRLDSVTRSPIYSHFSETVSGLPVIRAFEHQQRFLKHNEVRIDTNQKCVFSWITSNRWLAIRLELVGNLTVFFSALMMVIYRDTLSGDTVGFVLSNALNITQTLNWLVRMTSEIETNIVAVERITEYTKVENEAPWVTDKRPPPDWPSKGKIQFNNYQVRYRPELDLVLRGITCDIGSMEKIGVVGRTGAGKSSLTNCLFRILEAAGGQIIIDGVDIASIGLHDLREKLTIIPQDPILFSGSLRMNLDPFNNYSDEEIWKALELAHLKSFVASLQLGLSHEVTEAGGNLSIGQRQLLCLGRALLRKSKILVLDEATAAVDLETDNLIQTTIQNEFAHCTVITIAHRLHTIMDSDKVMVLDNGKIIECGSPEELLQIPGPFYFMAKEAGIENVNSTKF

`CN(C)C(=O)CCSC(SCCC(=O)O)c1cccc(/C=C/c2ccc3ccc(Cl)cc3n2)c1` (configuration not stated) [MK-571] showed an Activity [1] of 195% and an Activity [2] of 156%.
